These results are taken from US6211225A, “Heterocyclic aminopyrrolidine derivatives as melatonergic agents” (Bristol-Meyers Squibb, priority 2000, dated 2001).

The IC50 is the concentration at which inhibition is half-maximal.

Assay [1] deals with T1, human melatonin ML1a receptor (Homo sapiens, UniProt P48039).
T1 construct: expressed in transfected cells; membrane homogenates
Description: Melatonergic receptor binding activity (2-[125I]-iodomelatonin binding, membranes of NIH-3T3 cells expressing ML1a). Particulars: 37° C. for 1 hour, read-out: Melatonin Binding Affinity (IC50). Here is the method: Melatonergic Receptor Binding Activity
(a) TME=50 mM Tris buffer containing 12.5 mM MgCl2, and 2 mM EDTA, pH 7.4 at 37° C. with concentrated HCl.
(b) Wash buffer: 20 mM Tris base containing 2 mM MgCl2, pH 7.4 at room temperature.
(c) 10^-4 M melatonin (10^-5 M final concentration).
(d) 2-[^125 I]-iodomelatonin, 0.1 M final concentration
The melatonin ML1a receptor cDNA was subcloned into pcDNA3 and introduced into NIH-3T3 cells using Lipofectamine. Transformed NIH-3T3 cells resistant to geneticin (G-418) were isolated, and single colonies expressing high levels of 2[^125 I]-iodomelatonin binding were isolated. Cells are maintained in DMEM supplemented with 10% calf serum and G-418 (0.5 g/liter). Cells are grown to confluency in T-175 flasks, scraped using Hank's balanced salt solution, and frozen at -80° C. For preparing membrane homogenates, pellets are thawed on ice, and resuspended in TME buffer in the presence of 10 μg/ml aprotinin and leupeptin, and 100 ,μM phenylmethylsulfonylfluoride. The cells were then homogenized using a dounce homogenizer, and centrifuged. The resulting pellet was resuspended with dounce homogenizer in TME (supplemented with the above protease inhibitors) and frozen. On the day of assay, the small aliquot was thawed on ice and resuspended in ice cold TME (1:50-1:100 v/v) and held on ice until assayed.
37° C. for 1 hour. Reaction is terminated by filtration. Filters are washed 3 times.
^a = IC50 values for ML1a human melatonin receptor binding

The test system of assay [2] is circadian rhythms in rats. The settings on record: cited from earlier work.

T1 sequence (P48039 whole entry): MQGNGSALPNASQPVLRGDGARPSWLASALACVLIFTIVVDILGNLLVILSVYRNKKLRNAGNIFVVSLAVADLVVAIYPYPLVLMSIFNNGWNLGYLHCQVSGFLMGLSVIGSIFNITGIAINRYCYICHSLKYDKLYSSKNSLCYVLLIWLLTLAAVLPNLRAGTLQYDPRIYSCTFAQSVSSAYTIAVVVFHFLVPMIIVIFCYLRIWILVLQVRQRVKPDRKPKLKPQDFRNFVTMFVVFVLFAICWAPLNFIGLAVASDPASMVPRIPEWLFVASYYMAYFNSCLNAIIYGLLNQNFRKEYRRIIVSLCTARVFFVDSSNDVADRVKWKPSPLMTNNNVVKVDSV

For `CCC(=O)N[C@@H]1CCN(c2cccc3c2CCO3)C1` [Example 4, (R)-N-[N-(2,3-dihydrobenzofuran-4-yl)-pyrrolidin-3-yl]propanamide], in assay [1], the IC50 was 10 to 200 nM.
Same read-out and setting: the figure for `O=C(N[C@@H]1CCN(c2cccc3c2CCO3)C1)C1CC1` [Example 10, (R)-N-[N-(2,3-dihydrobenzofuran-4-yl)-pyrrolidin-3-yl]cyclopropane carboxamide] is < 10 nM; for `COCC(=O)N[C@H]1CCN(c2cccc3c2CCO3)C1` [Example 11, (S)-N-[N-(2,3-dihydrobenzofuran-4-yl)-pyrrolidin-3-yl]methoxyacetamide] it is < 10 nM; for `CCC(=O)N[C@H]1CCN(c2cccc3c2CCCO3)C1` [Example 13, (S)-N-[N-(2H-2,3-dihydrobenzopyran-5-yl)-pyrrolidin-3-yl]propanamide] it is < 10 nM.
Same read-out and setting: the figure for `CC(=O)N[C@H]1CCN(c2cccc3c2OCCO3)C1` [Example 14, (S)-N-[N-(2,3-dihydro-1,4-benzodioxin-5-yl)-pyrrolidin-3-yl]acetamide] is 10 to 200 nM; for `CCNC(=O)N[C@H]1CCN(c2cccc3c2CCO3)C1` [Example 20, (S)-N-[N-(2,3-dihydrobenzofuran-4-yl)-pyrrolidin-3-yl]-N'-ethyl urea] it is < 10 nM; for `CCNC(=O)N[C@@H]1CCN(c2cccc3c2CCO3)C1` [Example 21, (R)-N-[N-(2,3-dihydrobenzofuran-4-yl)-pyrrolidin-3-yl]-N'-ethyl urea] it is < 10 nM.
The same measure, in the same setting: the figure for `CCNC(=O)N[C@H]1CCN(c2cccc3c2OCCO3)C1` [Example 28, (S)-N-[N-(2,3-dihydro-1,4-benzodioxin-5-yl)-pyrrolidin-3-yl]-N'-ethyl urea] is 10 to 200 nM.
Regarding `O=C(NC1CC1)N[C@@H]1CCN(c2cccc3c2CCO3)C1` [Example 30, (R)-N-[N-(2,3-Dihydrobenzofuran-4-yl)-Pyrrolidin-3-yl]-N'-Cylopropyl Urea], the IC50 in assay [1] is 10 to 200 nM.
Still for that read-out and setting: the value for `CN(C)C(=O)N[C@H]1CCN(c2cccc3c2CCO3)C1` [Example 32, (S)-N-[N-(2,3-dihydrobenzofuran-4-yl)-pyrrolidin-3-yl]-N',N'-dimethyl urea] was 10 to 200 nM; that for `CC(=O)N[C@H]1CCN(c2c(Cl)cc(Cl)c3c2CCO3)C1` [Example 35, (S)-N-[N-(5,7-Dichloro-2,3-Dihydrobenzofuran-4-yl)-Pyrrolidin-3-yl]Acetamide] was < 10 nM.
With `CCCC(=O)N[C@H]1CCN(c2c(Cl)ccc3c2CCO3)C1` [Example 36, (S)-N-[N-(5-chloro-2,3-dihydrobenzofuran-4-yl)-pyrrolidin-3-yl]butyramide], the IC50 in assay [1] was < 10 nM.
`COc1ccc2[nH]cc(CCNC(C)=O)c2c1` [melatonin, N-acetyl-5-methoxytryptamine]: the “effect of exogenous melatonin administration on circadian rhythms” value in assay [2] was “synchronize circadian rhythms in rats”.
